{
  "source": "paper PMC6148290",
  "about": "“Endogenous metabolites of vitamin E limit inflammation by targeting 5-lipoxygenase” (Nature Communications, 2018)",
  "key": {"[1]": {"experiment": "LCM quantitation in plasma of healthy volunteers (UPLC-MS/MS)", "set-up": "species or system human", "conditions": "endogenous; ten healthy volunteers", "procedure": "The diversity of LCMs in vivo is poorly investigated and limited to the analysis of plasma[27] and liver. To quantify vitamin E metabolites in plasma and tissues, we developed a sensitive ultraperformance liquid chromatography ESI tandem mass spectrometry (UPLC-MS/MS)-based quantitation method. […] The detection response of α-T-13′-COOH (4a) was linear between 1 and 250 nM (Fig. 2a), with lower limits of detection between 0.5 and 4 nM for ω-carboxylates and 4 and 250 nM for ω-alcohols (Supplementary Table 3).\nHuman PMNL, monocytes, PBMC, and platelets were freshly isolated from leukocyte concentrates. The protocols for experiments with human blood and blood cells were approved by the ethical commission of the Friedrich-Schiller-University Jena. […]\nLCMs were separated on an Acquity UPLC BEH C18 column (1.7 µm, 2.1 × 50 mm, Waters) at a flow rate of 0.8 ml/min at 45 °C: 0 to 4.5 min, gradient from 50% mobile phase A (acetonitrile/water, 10/90, 0.07% formic acid)/50% mobile phase B (acetonitrile, 0.07% formic acid) to 100% B; 4.5 to 5.5 min, isocratic at 100% B. Multiple reaction monitoring was used to detect LCMs in the negative ion mode. […] Collision energies and lower limits of quantitation are listed in Supplementary Table 3."}, "[2]": {"molecular_target": "T1, COX-2 (Homo sapiens, UniProt P35354)", "T1 sequence (P35354 18-604)": "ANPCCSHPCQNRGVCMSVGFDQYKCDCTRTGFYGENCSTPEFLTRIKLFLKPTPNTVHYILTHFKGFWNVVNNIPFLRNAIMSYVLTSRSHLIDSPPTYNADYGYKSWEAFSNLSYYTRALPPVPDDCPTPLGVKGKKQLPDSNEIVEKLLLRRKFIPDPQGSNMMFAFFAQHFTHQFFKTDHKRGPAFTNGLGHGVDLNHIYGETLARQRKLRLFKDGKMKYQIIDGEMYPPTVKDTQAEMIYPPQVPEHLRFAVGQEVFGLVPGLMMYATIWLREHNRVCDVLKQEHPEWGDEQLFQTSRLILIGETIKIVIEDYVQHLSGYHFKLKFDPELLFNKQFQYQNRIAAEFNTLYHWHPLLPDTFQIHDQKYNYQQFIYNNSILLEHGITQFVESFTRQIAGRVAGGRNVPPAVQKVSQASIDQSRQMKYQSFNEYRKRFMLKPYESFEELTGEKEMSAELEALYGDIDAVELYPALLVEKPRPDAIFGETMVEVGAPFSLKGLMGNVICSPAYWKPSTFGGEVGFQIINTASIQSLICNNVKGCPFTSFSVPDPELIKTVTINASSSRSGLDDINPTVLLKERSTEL", "experiment": "Activity of isolated COX-2", "assay_type": "biochemical", "set-up": "purchased Cayman Chemicals", "conditions": "up to 10 µM", "procedure": "Purified bovine COX-1 (Cayman Chemicals; 50 units) or human recombinant COX-2 (Cayman Chemicals; 20 units) in 100 mM Tris buffer pH 8, 5 mM glutathione, 5 µM hemoglobin, and 100 µM EDTA were pre-incubated with LCMs for 5 min at 4 °C followed by 1 min at 37 °C. Formation of COX-derived 12(S)-hydroxy-5-cis-8,10-trans-heptadecatrienoic acid (12-HHT) was initiated by addition of AA (COX-1: 5 μM; COX-2: 2 μM)."}, "[3]": {"molecular_target": "T1, COX-2", "experiment": "COX-2-dependent PGE2 formation in LPS-activated monocytes", "assay_type": "cell-based", "set-up": "endogenous in cells; host or cells: human monocytes, LPS-stimulated for 24 h", "conditions": "up to 10 µM", "procedure": "Cells were washed and medium was exchanged. Freshly isolated PMNL (1 × 10^7) and stably transfected HEK-293 (1 × 10^6) cells were suspended in PBS pH 7.4 containing 1 mg/ml glucose and 1 mM CaCl2. […] A23187- and A23187/AA-treated PMNL and A23187/AA-treated HEK-293 (5-LO_wt), HEK-293 (5-LO_3W) and HEK-293 (5-LO_Arg101Asp) cells produced 135 ± 21, 636 ± 112, 300 ± 59, 133 ± 29, 55 ± 9 ng 5-LO products, respectively. PMNL synthesized 29 ± 6 ng 12-HETE and 97 ± 23 ng 15-HETE when challenged with A23187/AA. 5-LO products from monocytes were analyzed by UPLC-MS/MS.\nLPS-activated monocytes were treated with A23187 (2.5 µM) and AA (20 µM) to induce lipid mediator biosynthesis as described for LO product formation. Human blood was pre-incubated with vehicle (DMSO) or α-T-13′-COOH (4a, 100 nM) for 10 min, primed with LPS (1 µg/ml) for 30 min and stimulated with N-formyl-methionyl-leucyl-phenylalanine (fMLP, Sigma-Aldrich; 1 µM) for 15 min at 37 °C."}},
  "data": [
    {"smiles": "Cc1c(C)c2c(c(C)c1O)CC[C@@](C)(CCCC(C)CCCC(C)CCCC(C)C(=O)O)O2", "note": "(stereo partly drawn) [4a, 13-((2R)-6-hydroxy-2,5,7,8-tetramethylchroman-2-yl)-2,6,10-trimethyltridecanoic acid]", "values": [
      {"measurement": "α-T-13′-COOH (4a) concentration in human plasma", "setting": "[1]", "result": "8 to 49", "unit": "nM"},
      {"measurement": "inhibition of human recombinant COX-2", "setting": "[2]", "result": "not inhibited"},
      {"measurement": "inhibition of COX-2-dependent PGE2 formation in activated human monocytes", "setting": "[3]", "result": "not inhibited"}
    ]}
  ]
}
